Our source for the IC50 values is US20240182453A1, “NOVEL SUBSTITUTED PYRAZINE-CARBOXAMIDE DERIVATIVES” (Boehringer Ingelheim International GmbH, priority 2022, published 2024).

As usually defined, the IC50 is the concentration needed to halve the response being measured. Higher therefore signals a need for much substance.

Sequence of human metabotropic Glutamate 4 receptor (mGluR4) (Q14833 33-912): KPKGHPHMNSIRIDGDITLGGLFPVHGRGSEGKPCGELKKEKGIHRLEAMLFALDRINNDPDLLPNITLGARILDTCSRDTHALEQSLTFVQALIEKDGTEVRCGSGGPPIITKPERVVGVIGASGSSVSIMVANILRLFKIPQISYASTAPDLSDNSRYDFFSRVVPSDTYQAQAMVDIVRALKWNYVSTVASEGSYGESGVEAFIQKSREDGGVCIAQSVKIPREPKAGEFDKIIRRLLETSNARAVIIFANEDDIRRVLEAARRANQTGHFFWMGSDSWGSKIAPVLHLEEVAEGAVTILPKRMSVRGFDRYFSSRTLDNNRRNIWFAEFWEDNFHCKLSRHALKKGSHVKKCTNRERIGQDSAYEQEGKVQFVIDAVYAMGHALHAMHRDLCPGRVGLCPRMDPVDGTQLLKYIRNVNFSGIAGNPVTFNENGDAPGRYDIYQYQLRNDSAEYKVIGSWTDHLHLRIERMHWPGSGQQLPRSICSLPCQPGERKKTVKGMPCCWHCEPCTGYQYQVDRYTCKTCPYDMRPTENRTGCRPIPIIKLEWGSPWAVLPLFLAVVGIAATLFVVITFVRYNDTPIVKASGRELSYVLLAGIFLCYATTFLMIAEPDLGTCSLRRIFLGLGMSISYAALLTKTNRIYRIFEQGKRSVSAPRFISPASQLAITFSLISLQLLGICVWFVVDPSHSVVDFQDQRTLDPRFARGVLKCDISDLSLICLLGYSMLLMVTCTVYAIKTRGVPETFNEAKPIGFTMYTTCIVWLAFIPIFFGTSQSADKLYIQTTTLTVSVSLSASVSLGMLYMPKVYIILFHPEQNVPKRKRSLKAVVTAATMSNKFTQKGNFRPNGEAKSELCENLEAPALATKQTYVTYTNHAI

This experiment deals with human metabotropic Glutamate 4 receptor (mGluR4) (Homo sapiens (Human), UniProt Q14833). Briefly: Assay A: in vitro testing of mGluR4 potency (glutamate-induced cAMP lowering, HTRF cAMP). To be noted: HEK293 cells overexpressing human mGluR4; 10 uM L-glutamic acid, 1 uM forskolin; compounds of the present invention. Type of experiment: cell-based. The method, then:
A. In Vitro Testing of mGluR4 Potency
The in vitro activity of the compounds according to the invention may be investigated as follows:
The HEK293 cell overexpressing the human metabotropic Glutamate 4 receptor are thawed at 37° C. and immediately diluted with cell culture medium. After centrifugation, the cell pellet is re-suspended in medium and then distributed from a stirred spinner flask into the wells of the assay plate. The plates are incubated for one hour at room temperature before they are incubated for 24 hours at 37° C./5% CO2. After washing the cells in the plate three times with 80 uL HBSS/HEPES buffer (10 uL buffer remained in the wells after washing), 5 uL per well of compounds diluted in HBSS/HEPES buffer containing 0.2% BSA (final concentration: 0.1%) and 1 mM IBMX (final concentration: 0.5 mM) are added to the wells of the assay plate. Thereafter 5 uL per well of L-Glutamic acid (final concentration: 10 uM), forskolin (final concentration: 1 uM) and 1 mM IBMX (final concentration: 0.5 mM) dissolved in HBSS/HEPES buffer containing 0.2% BSA (final concentration: 0.1%) are added to the assay plate (final DMSO concentration: 1%). Several wells of the assay plate are used either for the positive and the negative controls or for the cAMP standard curve. The assay plate is incubated for 30 minutes at room temperature. Then 5 ul per well of Anti-cAMP-Antibody-d2 solution and 5 ul per well of cAMP-Europium Cryptate dilution are added to all wells of the plate and the plate is incubated another 60 minutes light protected at room temperature. The emission at 615 nm and 665 nm (Excitation wavelength: 320 nm) are measured on the EnVision™ reader (Perkin Elmer). The ratio between the emission at 665 nm and 615 is calculated by the reader. The whole assay is performed in the dark or under green light.
The cAMP standard is prepared by diluting the cAMP stock solution with HBSS/Hepes buffer: 5 μl/well of the cAMP dilutions (in HBSS/Hepes buffer containing 1 mM IBMX and 0.2% BSA—final concentration: 0.5 mM IBMX and 0.1% BSA) are added to 10 ul/well HBSS/Hepes buffer plus 5 ul/well 4% DMSO in HBSS/Hepes containing 0.2% BSA (final DMSO concentration: 1%—like in the wells containing compounds) in the wells of the assay plate. The final cAMP concentrations in the assay plate are: 0, 0.17, 0.69, 2.78, 11.1, 44.5, 178, and 712 nM (two wells/cAMP concentration).
Each assay microtiter plate contained also wells with vehicle controls instead of compound as controls for L-Glutamic acid induced signal (negative control; 100% CTL; 10 uM L-Glutamic acid+1 uM forskolin+0.5 mM IBMX+1% DMSO) and wells with vehicle controls without L-Glutamic acid as controls for non-specific changes in signal (positive control; 0% CTL; 0 uM L-Glutamic acid+1 uM forskolin+0.5 mM IBMX+1% DMSO).
The analysis of the data is performed by the calculation the ratio between the emission at 665 nm and the emission at 615 nm (Em665/Em615 ratio). Thereafter the signals of the compounds are normalized using the positive and negative controls by the following formula:
PoC=100×((Signal Sample−Positive Control)/(Negative Control−Positive Control))
A general note: Time-resolved FRET reads energy transfer from a long-lived donor to a nearby acceptor.
Molecule “5-(difluoromethyl)-N-[(1S)-1-(1-ethyl-5-fluoro-1H-1,3-benzodiazol-2-yl)-2-methylpropyl]pyrazine-2-carboxamide [Example 59]” came in with an IC50 of 4 nM.

With `COCCn1c(C(NC(=O)c2cnc(C)cn2)C2CCCO2)nc2cc(C(F)(F)F)ccc21` (single isomer, unassigned) [Example 19-1, N-{[1-(2-methoxyethyl)-5-(trifluoromethyl)-1H-1,3-benzodiazol-2-yl](oxolan-2-yl)methyl}-5-methylpyrazine-2-carboxamide], the IC50 is 13 nM.

In the case of `COCCn1c([C@@H](NC(=O)c2cnc(C)cn2)[C@H]2CCCO2)nc2cc(C(F)(F)F)ccc21` (single isomer, unassigned) [Example 19], half-maximal inhibition (IC50) required 3 nM.

In turn, `COCCn1c(C(NC(=O)c2cnc(C(F)F)cn2)C2CCOC2)nc2cc(F)ccc21` (single isomer, unassigned) [Example 48-2, 5-(difluoromethyl)-N-{[5-fluoro-1-(2-methoxyethyl)-1H-1,3-benzodiazol-2-yl](oxolan-3-yl)methyl} pyrazine-2-carboxamide] yielded a concentration for half-maximal inhibition (IC50) of 60 nM.

`Cc1cnc(C(=O)N[C@H](c2nc3cc(C(F)(F)F)ccc3n2C)[C@H]2CCCO2)cn1` (single isomer, unassigned) [Example 56] came in with an IC50 of 13 nM.

As to `COCCn1c(C(NC(=O)c2cnc(C)cn2)C2CCOC2)nc2cc(OC(F)(F)F)ccc21` (single isomer, unassigned) [Example 62-2, N-{[1-(2-methoxyethyl)-5-(trifluoromethoxy)-1H-1,3-benzodiazol-2-yl](oxolan-3-yl)methyl}-5-methylpyrazine-2-carboxamide], half-maximal inhibition (IC50) required 28 nM.

Molecule `CCn1c(C(NC(=O)c2cnc(C)cn2)C2CCOC2)nc2cc(OC(F)(F)F)ccc21` (single isomer, unassigned) [Example 70-2, N-{[1-ethyl-5-(trifluoromethoxy)-1H-1,3-benzodiazol-2-yl](oxolan-3-yl)methyl}-5-methylpyrazine-2-carboxamide] yielded a concentration for half-maximal inhibition (IC50) of 20 nM.

As to `CCn1c([C@@H](NC(=O)c2cnc(C)cn2)[C@H]2CCOC2)nc2cc(OC(F)(F)F)ccc21` (single isomer, unassigned) [Example 70], half-maximal inhibition (IC50) required 12 nM.

Regarding `COCCn1c(C(NC(=O)c2cnc(C)cn2)C2CCCO2)nc2cc(C(F)(F)F)ccc21` (single isomer, unassigned) [Example 71-2, N-{[1-(2-methoxyethyl)-5-(trifluoromethyl)-1H-1,3-benzodiazol-2-yl](oxolan-2-yl)methyl}-5-methylpyrazine-2-carboxamide], the IC50 worked out at 3 nM.

`COCCn1c([C@@H](NC(=O)c2cnc(C)cn2)[C@H]2CCCO2)nc2cc(C(F)(F)F)ccc21` (single isomer, unassigned) [Example 71] displayed an IC50 of 13 nM.

Molecule `Cc1cnc(C(=O)N[C@H](c2nc3cc(C(F)(F)F)ccc3n2C)[C@H]2CCCO2)cn1` (single isomer, unassigned) [Example 75] had an IC50 of 19 nM.

For `Cc1cnc(C(=O)NC(c2nc3cc(OC(F)(F)F)ccc3n2C)C2CCCOC2)cn1` (single isomer, unassigned) [Example 78-2, 5-methyl-N-{[1-methyl-5-(trifluoromethoxy)-1H-1,3-benzodiazol-2-yl](oxan-3-yl)methyl]pyrazine-2-carboxamide], half-maximal inhibition (IC50) required 25 nM.

Take `Cc1cnc(C(=O)NC(c2nc3cc(C(F)(F)F)ccc3n2C)C2CCCOC2)cn1` (single isomer, unassigned) [Example 82-2, 5-methyl-N-{[1-methyl-5-(trifluoromethyl)-1H-1,3-benzodiazol-2-yl](oxan-3-yl)methyl}pyrazine-2-carboxamide]: 32 nM corresponded to half-maximal inhibition (IC50).

As to `COCCn1c(C(NC(=O)c2cnc(C)cn2)C2CCOC2)nc2cc(C(F)(F)F)ccc21` (single isomer, unassigned) [Example 87-1, N-{[1-(2-methoxyethyl)-5-(trifluoromethyl)-1H-1,3-benzodiazol-2-yl](oxolan-3-yl)methyl}-5-methylpyrazine-2-carboxamide], inhibition was half-maximal at 21 nM (IC50).

For the molecule `COCCn1c(C(NC(=O)c2cnc(C)cn2)C2CCOC2)nc2cc(Cl)ccc21` (single isomer, unassigned) [Example 91-1, N-{[5-chloro-1-(2-methoxyethyl)-1H-1,3-benzodiazol-2-yl](oxolan-3-yl)methyl}-5-methylpyrazine-2-carboxamide], inhibition was half-maximal at 32 nM (IC50).

In turn, `CCn1c(C(NC(=O)c2cnc(C)cn2)C2CCOC2)nc2cc(OC(F)(F)F)ccc21` (single isomer, unassigned) [Example 97-1, N-{[1-ethyl-5-(trifluoromethoxy)-1H-1,3-benzodiazol-2-yl](oxolan-3-yl)methyl}-5-methylpyrazine-2-carboxamide] had an IC50 of 12 nM.

With `COCCn1c(C(NC(=O)c2cnc(C)cn2)C2CCCOC2)nc2cc(C(F)(F)F)ccc21` (single isomer, unassigned) [Example 103-1, N-{[1-(2-methoxyethyl)-5-(trifluoromethyl)-1H-1,3-benzodiazol-2-yl](oxan-3-yl)methyl}-5-methylpyrazine-2-carboxamide], half-maximal inhibition (IC50) was put at 22 nM.

For `CCn1c(C(NC(=O)c2cnc(C)cn2)C2CCOC2)nc2cc(C(F)(F)F)ccc21` (single isomer, unassigned) [Example 139, N-{[1-ethyl-5-(trifluoromethyl)-1H-1,3-benzodiazol-2-yl](oxolan-3-yl)methyl}-5-methylpyrazine-2-carboxamide], the IC50 was 11 nM.

On to `Cc1cnc(C(=O)NC(c2nc3cc(C(F)(F)F)ccc3n2CC(F)F)C2CCOC2)cn1` (single isomer, unassigned) [Example 141, N-{[1-(2,2-difluoroethyl)-5-(trifluoromethyl)-1H-1,3-benzodiazol-2-yl](oxolan-3-yl)methyl}-5-methylpyrazine-2-carboxamide], for which the IC50 worked out at 31 nM.

As to `CCn1c(C(NC(=O)c2cnc(C)cn2)C2CCOC2)nc2cc(F)ccc21` (single isomer, unassigned) [Example 143, N-[(1-ethyl-5-fluoro-1H-1,3-benzodiazol-2-yl)(oxolan-3-yl)methyl]-5-methylpyrazine-2-carboxamide], the IC50 worked out at 66 nM.

For `Cc1cnc(C(=O)NC(c2nc3ccc(C(F)(F)F)cc3n2CC(F)F)C2CCOC2)cn1` (single isomer, unassigned) [Example 146, N-{[1-(2,2-difluoroethyl)-6-(trifluoromethyl)-1H-1,3-benzodiazol-2-yl](oxolan-3-yl)methyl}-5-methylpyrazine-2-carboxamid], the IC50 was 16 nM.

`CCn1c(C(NC(=O)c2cnc(C)cn2)C2CCOC2)nc2ccc(C(F)(F)F)cc21` (single isomer, unassigned) [Example 147, N-{[1-ethyl-6-(trifluoromethyl)-1H-1,3-benzodiazol-2-yl](oxolan-3-yl)methyl}-5-methylpyrazine-2-carboxamide] displayed an IC50 of 11 nM.

On to `CCn1c(C(NC(=O)c2cnc(C)cn2)C2CCOC2)nc2ccc(C(F)(F)F)cc21` (single isomer, unassigned) [Example 148, N-{[1-ethyl-6-(trifluoromethyl)-1H-1,3-benzodiazol-2-yl](oxolan-3-yl)methyl}-5-methylpyrazine-2-carboxamide], for which the IC50 worked out at 14 nM.

Regarding `CCn1c(C(NC(=O)c2cnc(C)cn2)C2CCOC2)nc2cc(F)c(F)cc21` (single isomer, unassigned) [Example 159, N-[(1-ethyl-5,6-difluoro-1H-1,3-benzodiazol-2-yl)(oxolan-3-yl)methyl]-5-methylpyrazine-2-carboxamide], the IC50 stood at 30 nM.

`CCn1c(C(NC(=O)c2cnc(C)cn2)C2CCOC2)nc2cc(F)c(F)cc21` (single isomer, unassigned) [Example 160, N-[(1-ethyl-5,6-difluoro-1H-1,3-benzodiazol-2-yl)(oxolan-3-yl)methyl]-5-methylpyrazine-2-carboxamide] yielded an IC50 of 47 nM.
